Assay results as given in the NIST ThermoML archive (doi:10.1021/je9006629).

Tests used:
[1] = Liquid; for Normal boiling temperature: Distillation
[2] = refractive index (Na D-line) (dimensionless); xn = mol fraction of the nth substance listed; settings: 293.15 K, 101 kPa, Liquid, Standard Abbe refractometry

CCCCO [butan-1-ol]
[1]
Settings | vapor or sublimation pressure [kPa]
356.35 K | 25.3
359.45 K | 29.3
362.95 K | 33.5
368.6 K | 42.8
373.45 K | 52.5
373.85 K | 53.3
377.3 K | 61.2
381.9 K | 72.8
386.05 K | 84.9
387.75 K | 91.3
391.95 K | 105.3
395.8 K | 120.1

Settings | Normal boiling temperature [°C]
[1] | 117.80

CCCCO [butan-1-ol] + CCCCCCC
[2]
Settings | refractive index
x1 = 0.1121 | 1.3889
x1 = 0.1897 | 1.3898
x1 = 0.2845 | 1.3909
x1 = 0.3707 | 1.3919
x1 = 0.4655 | 1.393
x1 = 0.5 | 1.3934
x1 = 0.5862 | 1.3944
x1 = 0.681 | 1.3955
x1 = 0.7586 | 1.3964
x1 = 0.8276 | 1.3972
x1 = 0.9224 | 1.3983
x1 = 1 | 1.3992

CCCCCCC [heptane]
[1]
Settings | vapor or sublimation pressure [kPa]
332.9 K | 27.1
335.2 K | 29.9
336.85 K | 32.3
340.55 K | 36.9
343.75 K | 41.3
348.55 K | 48.9
351.45 K | 53.3
351.5 K | 53.3
352.35 K | 55.3
357.25 K | 65.3
363.15 K | 78.7
368.45 K | 91.3
368.55 K | 92.7
371.35 K | 100.8
374 K | 108.8

Settings | Normal boiling temperature [°C]
[1] | 98.50

CCCCCCC [heptane] + CCCCCO
Settings | refractive index
[2], x2 = 0 | 1.3876

CCCCCCC [heptane] + CCCCO
Settings | refractive index
[2], x2 = 0 | 1.3876

CCCCCO [pentan-1-ol]
[1]
Settings | vapor or sublimation pressure [kPa]
379.35 K | 31.2
382.4 K | 35.3
385.65 K | 40
390.75 K | 49.2
393.2 K | 53.3
394.7 K | 56.9
400.05 K | 69.3
404.6 K | 81.3
408.15 K | 91.3
409 K | 94.5
411.35 K | 101.9
414.65 K | 113.3

Settings | Normal boiling temperature [°C]
[1] | 138.0

CCCCCO [pentan-1-ol] + CCCCCCC
[2]
Settings | refractive index
x1 = 0.0755 | 1.3893
x1 = 0.1601 | 1.3912
x1 = 0.2844 | 1.394
x1 = 0.3511 | 1.3955
x1 = 0.4622 | 1.398
x1 = 0.5821 | 1.4007
x1 = 0.6845 | 1.403
x1 = 0.7732 | 1.4051
x1 = 0.8978 | 1.4078
x1 = 1 | 1.4101
